From patent US20240115654A1, “INTRAVENOUS ADMINISTRATION OF ENGINEERED ANTIMICROBIAL AMPHIPHILIC PEPTIDES” (priority 2021, published 2024) come the findings set out here.

In assay [1] the test system is Klebsiella pneumoniae isolates (n = 101). The procedure:
(§1) Comparator antibiotics were supplied by Micromyx, and stock solutions were prepared on the first day of testing using solvents recommended by CLSI (1). Stock solutions of all compounds were made at 40× the final testing concentration and stored at −80° C. prior to testing. Information regarding compound source, catalog and lot number, testing concentrations and drug diluent for the comparators and test agent are detailed below in Table 3.
(§2) The test organisms evaluated in this study consisted of clinical isolates from the Micromyx Repository and reference isolates from the American Type Culture Collection (ATCC; Manassas, VA). The clinical isolates were obtained from USA hospitals. Upon initial receipt at Micromyx, the organisms were sub-cultured onto an appropriate agar medium. Following incubation, colonies were harvested from these plates and cell suspensions prepared and frozen at −80° C. with a cryoprotectant. Prior to testing, the isolates were streaked from frozen vials onto Trypticase Soy Agar with 5% sheep blood (Becton Dickenson [BD]; Sparks, MD; Lot Nos. 7173618, 7166759, 7208688, 72144895, 7228505 and Remel Lenexa, KS Lot No. 212574). Plates were incubated at 35° C. overnight.
(§3) Mueller Hinton II broth (MHB II; BD; Lot Nos. 6258541 and 7143896) was used for MIC testing of aerobic organisms.
(§4) MIC values were determined using a broth microdilution procedure described by CLSI (1, 3). Automated liquid handlers (Multidrop 384, Labsystems, Helsinki, Finland; Biomek 2000 and Biomek FX, Beckman Coulter, Fullerton CA) were used to conduct serial dilutions and liquid transfers.
(§5) To prepare the drug mother plates, which would provide the serial drug dilutions for the replicate daughter plates, the wells of columns 2-12 of standard 96-well microdilution plates (Costar 3795) were filled with 150 μl of the designated diluent for each row of drug. The test articles and comparator compounds (300 μl at 40× the highest concentration to be tested) were dispensed into the appropriate wells in column 1. The Biomek 2000 was then used to make 2-fold serial dilutions in the mother plates from column 1 through column 11. The wells of Column 12 contained no drug and served as the organism growth control wells for the assay.
(§6) The daughter plates were loaded with 185 μL per well of MHB II using the Multidrop 384. The daughter plates were completed on the Biomek FX instrument which transferred 5 μL of drug solution from each well of a mother plate to the corresponding well of each daughter plate in a single step. A standardized inoculum of each test organism was prepared per CLSI methods (1). The inoculum for each organism was dispensed into sterile reservoirs divided by length (Beckman Coulter), and the Biomek 2000 was used to inoculate the plates. Daughter plates were placed on the Biomek 2000 work surface in reverse orientation so that inoculation took place from low to high drug concentration.
(§7) Plates were stacked 3-4 high, covered with a lid on the top plate, placed in plastic bags, and incubated at 35° C. for 16 to 20 hrs. Following incubation, the microplates were removed from the incubator and viewed from the bottom using a plate viewer. […] The MIC was read and recorded as the lowest concentration of drug that inhibited visible growth of the organism.
(§8) Clinical breakpoints to determine percent resistance within a given organism group were obtained from CLSI (3), with the exception of colistin for K. pneumoniae, Enterobacter spp., and E. coli, which are only available from EUCAST.

In assay [2] the test system is Acinetobacter spp. isolates (n = 104). As for the experimental part:
as §1, §2, §3, §4, §5, §6, §7, §8

The test system of assay [3] is Pseudomonas aeruginosa isolates (n = 109). The procedure:
as §1, §2, §3, §4, §5, §6, §7, §8

Assay [4] deals with Escherichia coli isolates (n = 101). The procedure:
as §1, §2, §3, §4, §5, §6, §7, §8

Assay [5] deals with Acinetobacter baumannii ATCC 19606 (non-MDR). The class given is cell-based. The settings on record: Acinetobacter baumannii ATCC 19606 (non-MDR). The procedure: (§9) Each peptide was formulated in PBS buffer prior to testing. Peptides of SEQ ID NO:5 and SEQ ID NO:8 were brought up in 100% DMSO with 0.002% polysorbate-80 at 1.28 mg/mL (40× the highest final test concentration of 32 mcg/mL). Final test concentration of DMSO was 2.5% in the assay at the first dilution for those two compounds.
(§10) Mueller Hinton II broth (MHB II; BD; Lot Nos. 6258541 and 7143896) was used for MIC testing of aerobic organisms. 0.002% polysorbate 80 (P80) was added to the test medium.
as §4
as §5, with “serial peptide” for “serial drug”, “of peptide.” for “of drug.”
as §6, with “transferred 5 uL of peptide” for “transferred 5 μL of drug”, “uL of peptide solution from” for “μL of drug solution from”, “per CLSI methods. The inoculum” for “per CLSI methods (1). The inoculum”, “drug concentration. The plates were then inoculated with 10 μL of the inoculum resulting in a final cell density of approximately 5×10^5 CFU/mL, per well.” for “drug concentration.”
(§11) Plates were stacked 3-4 high, covered with a lid on the top plate, placed in plastic bags, and incubated at 35° C. for 16 to 20 hrs. Following incubation, the microplates were removed from the incubator and viewed from the bottom using a plate viewer. […] The MIC was read and recorded as the lowest concentration of peptide that inhibited visible growth of the organism.

The subject of assay [6] is Staphylococcus aureus ATCC 43300 (MRSA). The class given is cell-based. The procedure: as §9, §10, §4
as §5, with “serial peptide” for “serial drug”, “of peptide.” for “of drug.”
as §6, with “transferred 5 uL of peptide” for “transferred 5 μL of drug”, “uL of peptide solution from” for “μL of drug solution from”, “per CLSI methods. The inoculum” for “per CLSI methods (1). The inoculum”, “drug concentration. The plates were then inoculated with 10 μL of the inoculum resulting in a final cell density of approximately 5×10^5 CFU/mL, per well.” for “drug concentration.”
as §11

In assay [7] the test system is Klebsiella pneumoniae ATCC BAA-1705 (KPC). The class given is cell-based. As for the experimental part:
as §9, §10, §4
as §5, with “serial peptide” for “serial drug”, “of peptide.” for “of drug.”
as §6, with “transferred 5 uL of peptide” for “transferred 5 μL of drug”, “uL of peptide solution from” for “μL of drug solution from”, “per CLSI methods. The inoculum” for “per CLSI methods (1). The inoculum”, “drug concentration. The plates were then inoculated with 10 μL of the inoculum resulting in a final cell density of approximately 5×10^5 CFU/mL, per well.” for “drug concentration.”
as §11

For assay [8], the system named is Enterococcus faecalis ATCC 700802 (V583 VRE). The class given is cell-based. As for the experimental part: as §9, §10, §4
as §5, with “serial peptide” for “serial drug”, “of peptide.” for “of drug.”
as §6, with “transferred 5 uL of peptide” for “transferred 5 μL of drug”, “uL of peptide solution from” for “μL of drug solution from”, “per CLSI methods. The inoculum” for “per CLSI methods (1). The inoculum”, “drug concentration. The plates were then inoculated with 10 μL of the inoculum resulting in a final cell density of approximately 5×10^5 CFU/mL, per well.” for “drug concentration.”
as §11

The subject of assay [9] is Streptococcus pyogenes ATCC 49399. The class given is cell-based. The settings on record: Streptococcus pyogenes ATCC 49399. As for the experimental part: as §9, §10, §4
as §5, with “serial peptide” for “serial drug”, “of peptide.” for “of drug.”
as §6, with “transferred 5 uL of peptide” for “transferred 5 μL of drug”, “uL of peptide solution from” for “μL of drug solution from”, “per CLSI methods. The inoculum” for “per CLSI methods (1). The inoculum”, “drug concentration. The plates were then inoculated with 10 μL of the inoculum resulting in a final cell density of approximately 5×10^5 CFU/mL, per well.” for “drug concentration.”
as §11

For assay [10], the system named is Streptococcus agalactiae ATCC 13813. The class given is cell-based. The procedure:
as §9, §10, §4
as §5, with “serial peptide” for “serial drug”, “of peptide.” for “of drug.”
as §6, with “transferred 5 uL of peptide” for “transferred 5 μL of drug”, “uL of peptide solution from” for “μL of drug solution from”, “per CLSI methods. The inoculum” for “per CLSI methods (1). The inoculum”, “drug concentration. The plates were then inoculated with 10 μL of the inoculum resulting in a final cell density of approximately 5×10^5 CFU/mL, per well.” for “drug concentration.”
as §11

Setting [11] is: Pseudomonas aeruginosa (n = 109).
Where [12] appears, read: Klebsiella pneumoniae (n = 101).

In brackets after ≈: the same amount, converted by molar mass. Where two headings read alike, the source gives them in different places. Peptide text beside a SMILES is read from it. Some results are limits rather than exact numbers.

`CC(C)[C@H](NC(=O)[C@H](Cc1c[nH]c2ccccc12)NC(=O)[C@H](CCCNC(=N)N)NC(=O)[C@H](CCCNC(=N)N)NC(=O)[C@@H](NC(=O)[C@@H](NC(=O)[C@H](CCCNC(=N)N)NC(=O)[C@@H](NC(=O)[C@@H](NC(=O)[C@H](CCCNC(=N)N)NC(=O)[C@H](CCCNC(=N)N)NC(=O)[C@H](Cc1c[nH]c2ccccc12)NC(=O)[C@@H](NC(=O)[C@H](CCCNC(=N)N)NC(=O)[C@H](CCCNC(=N)N)NC(=O)[C@@H](NC(=O)[C@H](CCCNC(=N)N)NC(=O)[C@H](CCCNC(=N)N)NC(=O)[C@@H](NC(=O)[C@H](Cc1c[nH]c2ccccc12)NC(=O)[C@H](CCCNC(=N)N)NC(=O)[C@@H](N)CCCNC(=N)N)C(C)C)C(C)C)C(C)C)C(C)C)C(C)C)C(C)C)C(C)C)C(=O)N[C@@H](CCCNC(=N)N)C(=O)N[C@@H](CCCNC(=N)N)C(N)=O` [SEQ ID NO: 1] (H-RRWVRRVRRVWRRVVRVVRRWVRR-NH2): the MIC90 (commonly the lowest concentration that inhibits either 90% of growth or 90% of the strains tested, depending on the study) in assay [1] (K. pneumoniae colistin-resistant, n=28) is 16 µg/mL (≈ 4.71 µM); in assay [2] (Acinetobacter colistin-resistant, n=21), 16 µg/mL (≈ 4.71 µM); in assay [2] (Acinetobacter spp. (n = 104)), 16 µg/mL (≈ 4.71 µM); in assay [3] (P. aeruginosa colistin-resistant, n=8), 16 µg/mL (≈ 4.71 µM); in assay [3] (setting [11]), 16 µg/mL (≈ 4.71 µM). In addition, the “Mode (MIC)” value was 4 µg/mL in [2] and 2 µg/mL in [4] (isolates (n = 101)). Besides, the MIC (as a rule, the lowest concentration found to suppress growth) in [5] stood at 2 µg/mL (≈ 0.588 µM); in assay [6] (ATCC 43300), 4 µg/mL (≈ 1.18 µM); in assay [7] (ATCC BAA-1705), 8 µg/mL (≈ 2.35 µM); in assay [8] (ATCC 700802), 4 µg/mL (≈ 1.18 µM); in assay [9], 8 µg/mL (≈ 2.35 µM); in assay [10], 8 µg/mL (≈ 2.35 µM).

Take Colistin [reference compound]: the MIC50 (usually the lowest concentration that inhibits either 50% of growth or 50% of the strains tested, depending on the study) was found to be 0.12 µg/mL in [1] (setting [12]), 0.25 µg/mL in [2] (Acinetobacter spp. (n = 104)), 0.5 µg/mL in assay [3] (setting [11]) and 0.12 µg/mL in [4] (Escherichia coli (n = 101)). For the same compound, the MIC90 in assay [1] (setting [12]) is 32 µg/mL; in assay [2] (Acinetobacter spp. (n = 104)) it was above 32 µg/mL; in assay [3] (setting [11]), 1 µg/mL; in assay [4] (Escherichia coli (n = 101)), 0.12 µg/mL. The “Mode (MIC)” value is 0.12 µg/mL in assay [1] (setting [12]), 0.25 µg/mL in assay [2] (Acinetobacter spp. (n = 104)), 0.5 µg/mL in assay [3] (setting [11]) and 0.12 µg/mL in [4] (Escherichia coli (n = 101)). The “% R (percent of isolates resistant)” value is given as 27.7% in [1] (Klebsiella pneumoniae (n = 101), CLSI breakpoints, colistin EUCAST); 20.2% in [2] (Acinetobacter spp. (n = 104), CLSI breakpoints); 7.3% in assay [3] (Pseudomonas aeruginosa (n = 109), CLSI breakpoints); 0% in [4] (Escherichia coli (n = 101), CLSI breakpoints, colistin EUCAST). The MIC range in assay [4] (Escherichia coli (n = 101)) is listed as ≤0.03-0.5 ^ μg/mL. Moreover, the minimum inhibitory concentration (MIC) in assay [5] was 0.25 µg/mL; in assay [6] (Staphylococcus aureus ATCC 43300 (MRSA)), above 32 µg/mL; in [7] (Klebsiella pneumoniae ATCC BAA-1705 (KPC)), 0.12 µg/mL; in [8] (Enterococcus faecalis ATCC 700802 (V583 VRE)) it was above 32 µg/mL; in assay [9], above 32 µg/mL; in assay [10], above 32 µg/mL.
